Patent publication US20210330575A1 (DONG KOOK PHARM. CO., LTD, priority 2018, published 2021)

Tested on: nitric oxide (NO) production in LPS-treated RAW264.7 cells
Test: Anti-inflammation activity: NO production by Griess reagent
Assay type: cell-based, mouse
Settings: LPS-induced RAW264.7, 48 hours, FIG. 2
Experimental: RAW264.7 cells which have been induced to have an inflammation response by LPS in the same manner as above were added to a 96-well plate. […] Then, by using the Griess reagent, the production amount of NO was measured.

## COc1ccc2c(c1)c(CC(=O)O)c(C)n2C(=O)c1ccc(Cl)cc1 [indomethacin]
  NO production (result in words): decreased
